What was measured:
human TLR7 = target: T1, human TLR7 (Homo sapiens, UniProt Q9NYK1); experiment: HEK293 NF-kB SEAP reporter assay, human TLR7; assay type: cell-based; settings: among six IMQ and OA compounds, SEAP fold change
T1 construct: host or cells: HEK293 with NF-kB-responsive SEAP reporter
T1 sequence (Q9NYK1 27-1049): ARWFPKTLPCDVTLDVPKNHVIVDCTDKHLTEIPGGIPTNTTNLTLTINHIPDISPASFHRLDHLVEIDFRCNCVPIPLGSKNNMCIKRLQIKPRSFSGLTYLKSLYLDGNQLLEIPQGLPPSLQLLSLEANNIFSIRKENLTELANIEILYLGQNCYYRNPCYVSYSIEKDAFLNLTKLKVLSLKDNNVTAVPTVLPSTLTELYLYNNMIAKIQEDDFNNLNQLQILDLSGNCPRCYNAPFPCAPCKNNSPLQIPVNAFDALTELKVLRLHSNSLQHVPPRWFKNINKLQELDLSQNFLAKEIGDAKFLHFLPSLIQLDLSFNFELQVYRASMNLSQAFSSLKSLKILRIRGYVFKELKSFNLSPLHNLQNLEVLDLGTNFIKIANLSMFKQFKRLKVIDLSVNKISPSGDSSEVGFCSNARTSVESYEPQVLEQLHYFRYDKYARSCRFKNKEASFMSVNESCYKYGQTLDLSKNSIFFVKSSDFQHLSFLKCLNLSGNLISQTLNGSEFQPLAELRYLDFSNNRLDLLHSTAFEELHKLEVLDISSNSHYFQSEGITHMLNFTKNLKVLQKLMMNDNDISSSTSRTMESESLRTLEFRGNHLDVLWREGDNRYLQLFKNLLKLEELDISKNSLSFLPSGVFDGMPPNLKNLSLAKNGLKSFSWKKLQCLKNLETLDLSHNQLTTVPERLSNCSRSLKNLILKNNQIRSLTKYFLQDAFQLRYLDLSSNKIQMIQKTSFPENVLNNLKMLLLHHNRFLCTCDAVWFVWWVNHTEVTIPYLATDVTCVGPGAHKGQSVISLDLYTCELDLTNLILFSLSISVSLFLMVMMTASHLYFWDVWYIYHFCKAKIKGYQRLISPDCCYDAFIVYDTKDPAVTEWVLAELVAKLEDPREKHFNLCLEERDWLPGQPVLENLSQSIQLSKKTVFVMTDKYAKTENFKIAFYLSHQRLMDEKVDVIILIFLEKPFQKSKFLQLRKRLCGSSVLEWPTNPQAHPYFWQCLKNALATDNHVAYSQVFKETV
Protocol: Human embryonic kidney (HEK)293 cells expressing human TLR7 or TLR8 with an NF-κB-responsive secreted embryonic alkaline phosphatase (SEAP) reporter gene were obtained from Novus Biologicals (Littleton, Colo.) and Invivogen (San Diego, Calif.), respectively. Cells were maintained in DMEM with 10% HI-FBS and selection antibiotics per the manufacturer's instructions. Cells were plated at 5×10^5 cells/96-well and stimulated with indicated agonist(s) for 24 h. Supernatants were harvested and analyzed for NF-κB/SEAP activation using the QuantiBlue™ kit (Invivogen). Values are expressed as fold change in OD650 over vehicle-only treated samples.

[1] = test system: newborn cord blood mononuclear cells (CBMCs); experiment: Human newborn Th1 polarization assay; assay type: cell-based; settings: 10 μM, with αCD3, 96 hrs
Protocol: Newborn cord blood mononuclear cells (CBMCs), a mixed mononuclear cell culture which is a largely naïve newborn T cell population, were stimulated with the TLR7/8 agonists in the presence of the polyclonal T cell activator αCD3 for 96 hours. T cell polarization was evaluated by IFNγ levels measured in cell-free supernatants by ELISA.

human TLR8 = target: T2, human TLR8 (Homo sapiens, UniProt Q9NR97); settings: HEK293 cells stably expressing human TLR8 (ref. 24); cited from earlier work
T2 construct: host or cells: HEK293 with NF-kB-responsive SEAP reporter
T2 sequence (Q9NR97 27-1041): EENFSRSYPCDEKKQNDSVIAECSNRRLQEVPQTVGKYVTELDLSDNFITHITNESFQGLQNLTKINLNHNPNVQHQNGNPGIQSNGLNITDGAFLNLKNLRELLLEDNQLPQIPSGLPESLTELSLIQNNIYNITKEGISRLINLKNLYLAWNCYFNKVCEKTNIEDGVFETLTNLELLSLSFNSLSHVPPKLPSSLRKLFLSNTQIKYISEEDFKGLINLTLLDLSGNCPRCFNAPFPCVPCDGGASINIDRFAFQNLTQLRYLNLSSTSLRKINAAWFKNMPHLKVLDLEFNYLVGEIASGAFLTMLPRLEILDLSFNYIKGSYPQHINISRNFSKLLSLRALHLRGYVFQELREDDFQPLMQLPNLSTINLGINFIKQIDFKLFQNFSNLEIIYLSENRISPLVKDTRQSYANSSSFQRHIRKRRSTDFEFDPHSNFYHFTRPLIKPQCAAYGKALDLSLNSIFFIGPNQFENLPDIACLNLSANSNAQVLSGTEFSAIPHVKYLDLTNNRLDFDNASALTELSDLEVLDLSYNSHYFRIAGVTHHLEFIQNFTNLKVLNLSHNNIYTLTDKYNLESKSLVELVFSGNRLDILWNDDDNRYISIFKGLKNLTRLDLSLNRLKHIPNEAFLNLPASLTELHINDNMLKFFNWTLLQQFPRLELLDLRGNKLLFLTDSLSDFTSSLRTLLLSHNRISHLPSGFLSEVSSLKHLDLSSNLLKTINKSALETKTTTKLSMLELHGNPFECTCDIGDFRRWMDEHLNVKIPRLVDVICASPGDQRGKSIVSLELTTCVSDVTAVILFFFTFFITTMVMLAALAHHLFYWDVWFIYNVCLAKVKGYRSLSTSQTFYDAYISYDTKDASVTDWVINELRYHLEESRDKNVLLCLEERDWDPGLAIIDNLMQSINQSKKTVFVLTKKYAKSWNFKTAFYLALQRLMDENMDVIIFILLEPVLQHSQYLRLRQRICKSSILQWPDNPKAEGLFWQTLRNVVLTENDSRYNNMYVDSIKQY

SMILES | potency for hTLR7 (human TLR7) | IFNγ production by newborn T cells [1] | agonist activity, human TLR8 (human TLR8)
CCCCc1nc2c(N)nc3ccccc3c2n1CCO [CRX-649] | greatest potency | significantly enhanced ability to induce IFNγ production | 
CCCCCCCCCCCCCCCCCC(=O)NCCCCOn1c(CCCC)nc2c(N)nc3ccccc3c21 [3M-052, N-[4-[(4-amino-2-butyl-1H-imidazo[4,5-c]quinolin-1-yl)oxy]butyl]octadecanamide] |  |  | Dual agonist activity
